From patent US20160362416A1, “ANTIVIRAL COMPOUNDS” (Gilead Sciences, Inc., priority 2012, published 2016)
pEC50: −log10 of the molar value.

Experiments:
[1] = system: Y93H in genotype 1a NS5A replicon; test: Resistance mutant replicon assay, genotype 1a NS5A Y93H; type: cell-based, HCV; conditions: Hepatitis C virus, read-out: 1a Y93H (nM)
Protocol: (§1) Evaluation of cell-based anti-HCV activity: Antiviral potency (EC50) was determined using a Renilla luciferase (RLuc)-based HCV replicon reporter assay. To perform the assay for genotype 1 and 2a JFH-1, stable HCV 1a RLuc replicon cells (harboring a dicistronic genotype 1a H77 replicon that encodes a RLuc reporter), stable HCV lb RLuc replicon cells (harboring a dicistronic genotype 1b Conl replicon that encodes a RLuc reporter), or stable HCV 2a JFH-1 Rluc replicon cells (harboring a dicistronic genotype 2a JFH-1 replicon that encodes a RLuc reporter; with L31 present in NS5A) were dispensed into 384-well plates for EC50 assays. To perform the assay for genotype 2a (with M31 present in NS5A) or 2b, NS5A chimeric genotype 2a JFH-1 replicons that encodes a RLuc-Neo reporter and either genotype 2a J6 strain NS5A gene or genotype 2b MD2b-1 strain NS5A gene (both with M31 present) respectively, were either transiently transfected (t) into Huh-Lunet cells or were established as stably replicating replicon cells (s) is provided. Either cells were dispensed into 384-well plates for EC50 assays. To perform the assay for genotype 3 and 4, NS5A chimeric genotype 1b Conl replicons that encodes a Pi-RLuc reporter and either genotype 3a S52 strain NS5A gene or genotype 4a ED43 strain NS5A gene respectively, were transiently transfected (t) into Huh-Lunet cells, which were subsequently dispensed into 384-well plates. Compounds were dissolved in DMSO at a concentration of 10 mM and diluted in DMSO either manually or using an automated pipeting instrument. Serially 3-fold diluted compounds were either manually mixed with cell culture media and added to the seeded cells or directly added to the cells using an automated instrument. DMSO was used as a negative (solvent; no inhibition) control, and the protease inhibitor ITMN-191 was included at a concentration >100×EC50 as a positive control. 72 hours later, cells were lysed and Renilla luciferase activity quantified as recommended by the manufacturer (Promega-Madison, Wis.). Non-linear regression was performed to calculate EC50 values.
(§2) To determine the antiviral potency (EC50) against resistance mutants, resistance mutations, including M28T, Q30R, Q30H, Q30E, L31M, Y93C, Y93H, and Y93N in genotype 1a NS5A, Y93H and L31V/Y93H in genotype 1b NS5A, and Y93H for in genotype 3a NS5A, were introduced individually into either 1a Pi-Rluc or 1b Pi-Rluc replicons by site directed mutagenesis. Replicon RNA of each resistant mutant was transiently transfected into Huh-7-derived cured-51 cells and antiviral potency was determined on these transfected cells as described above.

[2] = system: stable HCV 1a RLuc replicon cells (genotype 1a H77 replicon); test: HCV genotype 1a RLuc replicon reporter assay; type: cell-based; conditions: Hepatitis C virus; stable genotype 1a H77 RLuc replicon cells, 72 hours
[3] = system: stable HCV 1b RLuc replicon cells (genotype 1b Con1 replicon); test: HCV genotype 1b RLuc replicon reporter assay; type: cell-based; conditions: Hepatitis C virus; stable genotype 1b Con1 RLuc replicon cells, 72 hours
Outline: (§3)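 Stable 1b Con1 RLuc replicon cells, or Huh-Lunet cells transiently transfected with chimeric replicons (Con1 backbone carrying 3a S52 or 4a ED43 NS5A; JFH-1 backbone carrying 2b MD2b-1 NS5A, M31), treated with 3-fold dilutions for 72 h. Renilla luciferase read after lysis; EC50 by non-linear regression.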

[4] = system: Q30E in genotype 1a NS5A replicon; test: Resistance mutant replicon assay, genotype 1a NS5A Q30E; type: cell-based, HCV; conditions: Hepatitis C virus, read-out: 1a Q30E (nM)
Protocol: as §1, §2

[5] = system: NS5A chimeric genotype 1b Con1 replicon with genotype 3a S52 strain NS5A gene; test: HCV genotype 3a NS5A chimeric replicon assay; type: cell-based; conditions: Hepatitis C virus, 72 h, read-out: 3a (nM)
Outline: as §3

[6] = system: Y93N in genotype 1a NS5A replicon; test: Resistance mutant replicon assay, genotype 1a NS5A Y93N; type: cell-based, HCV; conditions: Hepatitis C virus, read-out: 1a Y93N (nM)
Protocol: as §1, §2

[7] = system: NS5A chimeric genotype 2a JFH-1 replicon with genotype 2b MD2b-1 strain NS5A gene (M31); test: HCV genotype 2b NS5A chimeric replicon assay, stable (s); type: cell-based; conditions: Hepatitis C virus, 72 h, read-out: 2b (s) (nM)
[8] = system: Y93H in genotype 3a NS5A replicon; test: Resistance mutant replicon assay, genotype 3a NS5A Y93H; type: cell-based, HCV; conditions: Hepatitis C virus, read-out: 3a Y93H (nM)
Protocol: as §1, §2

[9] = system: NS5A chimeric genotype 1b Con1 replicon with genotype 4a ED43 strain NS5A gene; test: HCV genotype 4a NS5A chimeric replicon assay; type: cell-based; conditions: Hepatitis C virus, 72 h, read-out: 4a (s) (nM)
[10] = system: NS5A chimeric genotype 2a JFH-1 replicon with genotype 2b MD2b-1 strain NS5A gene (M31); test: HCV genotype 2b NS5A chimeric replicon assay, transient (t); type: cell-based; conditions: Hepatitis C virus, 72 h, read-out: 2b (t) (nM)
Protocol: as §1

[11] = system: NS5A chimeric genotype 2a JFH-1 replicon with genotype 2a J6 strain NS5A gene (M31); test: HCV genotype 2a J6 NS5A chimeric replicon assay, transient (t); type: cell-based; conditions: Hepatitis C virus, 72 h, read-out: 2a J6 (t) (nM)
[12] = system: stable HCV 2a JFH-1 Rluc replicon cells (L31 present in NS5A); test: HCV genotype 2a JFH-1 RLuc replicon reporter assay; type: cell-based; conditions: Hepatitis C virus, 72 h, read-out: 2a JFH (nM)

| SMILES | EC50 [1] [nM] | pEC50 [2] | pEC50 [3] | EC50 [4] [nM] | EC50 [5] [nM] | EC50 [6] [nM] | EC50 [7] [nM] | EC50 [8] [nM] | EC50 [9] [nM] | EC50 [10] [nM] | EC50 [11] [nM] | EC50 [12] [nM] |
| --- | --- | --- | --- | --- | --- | --- | --- | --- | --- | --- | --- | --- |
| COC(=O)N[C@H](C(=O)N1[C@H](c2ncc(-c3ccc4c(c3)COc3cc5c(ccc6nc([C@@H]7CC[C@H](C)N7C(=O)[C@@H](NC(=O)OC)C7CCOCC7)[nH]c65)cc3-4)[nH]2)C[C@@H]2CCC[C@@H]21)C(C)C [Comp 8, reference compound] | 1.9 | 10.55 | 10.40 | 0.979 | 0.071 | 4.58 | 0.113 |  |  |  |  |  |
| COC(=O)N[C@H](C(=O)N1[C@@H](C)CC[C@H]1c1ncc(-c2ccc3c(c2)COc2cc4c(ccc5nc([C@@H]6C[C@H](C)CN6C(=O)[C@@H](NC(=O)OC)C6CCOCC6)[nH]c54)cc2-3)[nH]1)C(C)C [Comp 13, reference compound] | 1.07 | 10.60 | 10.32 | 0.371 |  | 2.13 | 0.048 | 4.4 | 4.4 |  |  |  |
| CC[C@H]1C[C@@H](c2ncc(-c3ccc4c(c3)COc3cc5c(ccc6nc([C@@H]7CC[C@H](C)N7C(=O)[C@@H](NC(=O)OC)C(C)C)[nH]c65)cc3-4)[nH]2)N(C(=O)[C@@H](NC(=O)OC)C2C[C@@H](C)O[C@H](C)C2)C1 (stereo partly drawn) [Example AE, Methyl [(1S)-1-[(2R,6R)-2,6-dimethyltetrahydro-2H-pyran-4-yl]-2-{(2S,4S)-4-ethyl-2-[5-(2-{(2S,5S)-1-[N-(methoxycarbonyl)-L-valyl]-5-methylpyrrolidin-2-yl}-1,11-dihydroisochromeno[4′,3′:6,7]naphtho[1,2-d]imidazol-9-yl)-1H-imidazol-2-yl]pyrrolidin-1-yl}-2-oxoethyl]carbamate] | 0.23 | 10.62 | 10.66 |  | 0.027 | 1.12 |  | 6.93 | 0.011 | 0.038 | 0.042 | 0.012 |
| COC(=O)N[C@H](C(=O)N1[C@@H](C)CC[C@H]1c1ncc(-c2ccc3c(c2)COc2cc4c(ccc5nc([C@@H]6C[C@H](C)CN6C(=O)[C@@H](NC(=O)OC)C6C[C@@H](C)O[C@H](C)C6)[nH]c54)cc2-3)[nH]1)C(C)C (stereo partly drawn) [Example AV, methyl {(2S)-1-[(2S,5S)-2-(5-{2-[(2S,4S)-1-{(2S)-2-[(2R,6R)-2,6-dimethyltetrahydro-2H-pyran-4-yl]-2-[(methoxycarbonyl)amino]acetyl}-4-methylpyrrolidin-2-yl]-1,11-dihydroisochromeno[4′,3′:6,7]naphtho[1,2-d]imidazol-9-yl}-1H-imidazol-2-yl)-5-methylpyrrolidin-1-yl]-3-methyl-1-oxobutan-2-yl}carbamate] | 0.14 | 10.44 | 10.44 |  | 0.029 | 1.05 |  | 2.39 | 0.013 | 0.015 | 0.008 | 0.011 |
| COC(=O)N[C@H](C(=O)N1[C@@H](C)CC[C@H]1c1ncc(-c2ccc3c(c2)COc2cc4c(ccc5nc([C@@H]6CCCN6C(=O)[C@@H](NC(=O)OC)C6C[C@@H](C)O[C@H](C)C6)[nH]c54)cc2-3)[nH]1)C(C)C (stereo partly drawn) [Example AW, methyl {(2S)-1-[(2S,5S)-2-(5-{2-[(2S)-1-{(2S)-2-[(2R,6R)-2,6-dimethyltetrahydro-2H-pyran-4-yl]-2-[(methoxycarbonyl)amino]acetyl}pyrrolidin-2-yl]-1,11-dihydroisochromeno[4′,3′:6,7]naphtho[1,2-d]imidazol-9-yl}-1H-imidazol-2-yl)-5-methylpyrrolidin-1-yl]-3-methyl-1-oxobutan-2-yl}carbamate] | 0.704 | 10.54 | 10.15 |  | 0.015 | 1.47 |  | 1.51 | 0.008 | 0.029 | 0.021 | 0.011 |
| COC(=O)N[C@H](C(=O)N1[C@H](c2ncc(-c3ccc4c(c3)COc3cc5c(ccc6nc([C@@H]7CC[C@H](C)N7C(=O)[C@@H](NC(=O)OC)C7C[C@@H](C)O[C@H](C)C7)[nH]c65)cc3-4)[nH]2)C[C@@H]2CCC[C@@H]21)C(C)C (stereo partly drawn) [Example AY, methyl {(2S)-1-[(2S,3aS,6aS)-2-(5-{2-[(2S,5S)-1-{(2S)-2-[(2R,6R)-2,6-dimethyltetrahydro-2H-pyran-4-yl]-2-[(methoxycarbonyl)amino]acetyl}-5-methylpyrrolidin-2-yl]-1,11-dihydroisochromeno[4′,3′:6,7]naphtho[1,2-d]imidazol-9-yl}-1H-imidazol-2-yl)hexahydrocyclopenta[b]pyrrol-1(2H)-yl]-3-methyl-1-oxobutan-2-yl}carbamate] | 0.531 | 10.57 | 10.55 |  | 0.023 | 1.18 |  | 8.48 | 0.011 | 0.03 | 0.013 | 0.018 |
| COC(=O)N[C@H](C(=O)N1[C@H](c2nc3ccc4cc5c(cc4c3[nH]2)OCc2cc(-c3cnc([C@@H]4CC[C@H](C)N4C(=O)[C@@H](NC(=O)OC)C4C[C@@H](C)O[C@H](C)C4)[nH]3)ccc2-5)C[C@@H]2CCC[C@@H]21)C(C)C (stereo partly drawn) [Example BI, methyl{(2S)-1-[(2S,3aS,6aS)-2-(9-{2-[(2S,5S)-1-{(2S)-2-[(2R,6R)-2,6-dimethyltetrahydro-2H-pyran-4-yl]-2-[(methoxycarbonyl)amino]acetyl}-5-methylpyrrolidin-2-yl]-1H-imidazol-5-yl}-1,11-dihydroisochromeno[4′,3′:6,7]naphtho[1,2-d]imidazol-2-yl)hexahydrocyclopenta[b]pyrrol-1(2H)-yl]-3-methyl-1-oxobutan-2-yl}carbamate] | 0.184 | 10.92 | 10.62 |  | 0.017 | 0.466 | 0.033 | 3.45 | 0.011 |  | 0.022 | 0.011 |
